Here are results for 27 compounds from patent US8134015B2, “Compound inhibiting in vivo phosphorous transport and medicine containing the same” (Kyowa Hakko Kirin Co., Ltd., priority 2003, dated 2012).

Some results are limits rather than exact numbers.

The first experiment has as its target T1, rat NaPi-2b (Rattus norvegicus, UniProt Q9JJ09).
T1 construct: expressed in transfected cells; host or cells: Xenopus oocytes injected with cRNA
T1 sequence (Q9JJ09 1-695): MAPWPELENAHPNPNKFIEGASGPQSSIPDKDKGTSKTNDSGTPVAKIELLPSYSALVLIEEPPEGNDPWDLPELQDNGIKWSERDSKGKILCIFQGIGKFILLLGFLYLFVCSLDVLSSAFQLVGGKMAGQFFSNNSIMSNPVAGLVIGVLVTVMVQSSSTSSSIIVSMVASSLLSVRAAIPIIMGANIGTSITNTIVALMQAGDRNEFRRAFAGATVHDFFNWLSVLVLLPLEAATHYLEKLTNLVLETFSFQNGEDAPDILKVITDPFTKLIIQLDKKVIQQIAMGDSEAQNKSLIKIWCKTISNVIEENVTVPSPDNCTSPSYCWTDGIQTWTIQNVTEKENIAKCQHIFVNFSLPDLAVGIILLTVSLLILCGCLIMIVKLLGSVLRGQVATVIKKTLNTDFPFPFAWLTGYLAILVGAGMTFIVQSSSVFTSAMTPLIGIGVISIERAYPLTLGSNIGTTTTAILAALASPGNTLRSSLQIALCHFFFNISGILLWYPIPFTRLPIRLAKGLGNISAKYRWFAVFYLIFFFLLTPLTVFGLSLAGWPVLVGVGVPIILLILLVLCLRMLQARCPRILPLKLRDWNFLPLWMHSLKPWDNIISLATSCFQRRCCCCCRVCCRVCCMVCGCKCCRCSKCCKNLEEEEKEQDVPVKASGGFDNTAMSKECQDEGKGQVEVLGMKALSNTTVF
Put plainly: Sodium-dependent phosphate uptake of Xenopus oocytes which expressed NaPi-2b (32P). Type of experiment: cell-based. The settings on record: Xenopus oocytes expressing rat NaPi-2b, 32P radioactive phosphorus; read-out: IC50 (phosphate uptake inhibitory activity). The essentials:
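Read-out is 32P phosphate uptake into Xenopus oocytes expressing rat intestinal NaPi-2b (cRNA injection, 2-day culture). Inhibition at 300 μM and 100 μM was derived from a single inhibition curve and given as percent.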
The IC50 is the midpoint of a concentration-inhibition curve. With `COc1cccc(/C=N/NC(=O)c2cc(I)ccc2NC(=O)c2cccc(CN3CCC(N4CCCCC4)CC3)c2)c1` [Compound 488, 3-[1,4′]Bipiperidinyl-1′-ylmethyl-N-[4-iodo-2-(3-methoxy-benzylidene-hydrazinocarbonyl)-phenyl]-benzamide], the half-inhibitory concentration (IC50) is below 3 µM.
For the compound `COc1ccc(C(=O)Nc2scc(C)c2C(=O)N/N=C/c2ccc(Cl)c(C(F)(F)F)c2)cc1OC` [Compound 522, N-[3-(4-Chloro-3-trifluoromethyl-benzylidene-hydrazinocarbonyl)-4-methyl-thiophen-2-yl]-3,4-dimethoxy-benzamide], the IC50 is 1.09 µM.
On the same count and under the same terms, to `Cc1csc(NC(=O)c2cccc(CSc3nc[nH]n3)c2)c1C(=O)N/N=C/c1ccc(Cl)c(C(F)(F)F)c1` [Compound 555, N-[3-(4-Chloro-3-trifluoromethyl-benzylidene-hydrazinocarbonyl)-4-methyl-thiophen-2-yl]-3-(1H-[1,2,4]triazol-3-ylsulfanylmethyl)-benzamide] belongs below 3 µM.
Turning to `CC(O)CN(Cc1cccc(C(=O)Nc2ccc(N3CCCC3=O)cc2C(=O)N/N=C/c2ccc(Cl)c(C(F)(F)F)c2)c1)CC(C)O` (stereo not drawn) [Compound 945, 3-{[Bis-(2-hydroxy-propyl)-amino]-methyl}-N-[2-(4-chloro-3-trifluoromethyl-benzylidene-hydrazinocarbonyl)-4-(2-oxo-pyrrolidin-1-yl)-phenyl]-benzamide], the IC50 amounted to 19.4 µM.
Turning to `CCN(CC)CCN(C)Cc1cccc(C(=O)Nc2ccc(N3CCSCC3)cc2C(=O)N/N=C/c2ccc(Cl)c(C(F)(F)F)c2)c1` [Compound 929, N-[2-(4-Chloro-3-trifluoromethyl-benzylidene-hydrazinocarbonyl)-4-thiomorpholin-4-yl-phenyl]-3-{[(2-diethylamino-ethyl)-methyl-amino]-methyl}-benzamide], the concentration for half-maximal inhibition (IC50) is below 1 µM.
As for `CCN(CC)CCN(C)Cc1cccc(C(=O)Nc2ccc(I)cc2C(=O)N/N=C/c2cccc(OC)c2)c1` [Compound 478, 3-{[(2-Diethylamino-ethyl)-methyl-amino]-methyl}-N-[4-iodo-2-(3-methoxy-benzylidene-hydrazinocarbonyl)-phenyl]-benzamide], the IC50 was below 3 µM.
Turning to `Cc1ccc(/C=N/NC(=O)c2cc(Br)ccc2NC(=O)c2cccc(CNCCN3CCOCC3)c2)cc1C` [Compound 279, N-[4-Bromo-2-(3,4-dimethyl-benzylidene-hydrazinocarbonyl)-phenyl]-3-[(2-morpholin-4-yl-ethylamino)-methyl]-benzamide], the IC50 amounted to 2.31 µM.
Regarding `Cc1ccc(/C=N/NC(=O)c2cc(Br)ccc2NC(=O)c2cccc(CSc3ccncc3)c2)cc1C` [Compound 199, N-[4-Bromo-2-(3,4-dimethyl-benzylidene-hydrazinocarbonyl)-phenyl]-3-(pyridin-4-ylsulfanylmethyl)-benzamide], the 50% inhibitory concentration (IC50) was 1.82 µM.
Regarding `Cc1cccc(/C=N/NC(=O)c2cc(Cl)ccc2NC(=O)c2cccc(CSCCS(=O)(=O)O)c2)c1` [Compound 692, 2-{3-[4-Chloro-2-(3-methyl-benzylidene-hydrazinocarbonyl)-phenylcarbamoyl]-benzylsulfanyl}-ethanesulfonic acid], the 50% inhibitory concentration (IC50) was 99.4 µM.
Still for that read-out and setting: to `CC(O)CN(Cc1cccc(C(=O)Nc2ccc(F)cc2C(=O)N/N=C/c2ccc(Cl)c(C(F)(F)F)c2)c1)CC(C)O` (stereo not drawn) [Compound 857, 3-{[Bis-(2-hydroxy-propyl)-amino]-methyl}-N-[2-(4-chloro-3-trifluoromethyl-benzylidene-hydrazinocarbonyl)-4-fluoro-phenyl]-benzamide] belongs 1.18 µM; to `Cc1csc(NC(=O)c2cccc(CN3CCC(CO)CC3)c2)c1C(=O)N/N=C/c1cccc(F)c1` [Compound 602, N-[3-(3-Fluoro-benzylidene-hydrazinocarbonyl)-4-methyl-thiophen-2-yl]-3-(4-hydroxymethyl-piperidin-1-ylmethyl)-benzamide], 3.98 µM.
In the case of `COc1ccc(/C=N/NC(=O)c2ccccc2NC(=O)c2ccc(OC)c(OC)c2)cc1Br` [Compound 34, N-[2-(3-Bromo-4-methoxy-benzylidene-hydrazinocarbonyl)-phenyl]-3,4-dimethoxy-benzamide], the IC50 worked out at 1.5 µM.
Turning to `O=C(Nc1ccc(Cl)cc1C(=O)N/N=C/c1cccc(F)c1)c1cccc(CN2CCC(N3CCCCC3)CC2)c1` [Compound 368, 3-[1,4′]Bipiperidinyl-1′-ylmethyl-N-[4-chloro-2-(3-fluoro-benzylidene-hydrazinocarbonyl)-phenyl]-benzamide], the IC50 was determined as 1.37 µM.
The same measure, in the same setting: in the case of `Cc1ccc(/C=N/NC(=O)c2cc(Br)ccc2NC(=O)c2ccc(CSCCCO)cc2)cc1C` [Compound 273, N-[4-Bromo-2-(3,4-dimethyl-benzylidene-hydrazinocarbonyl)-phenyl]-4-(3-hydroxy-propylsulfanylmethyl)-benzamide] it was 0.15 µM; in that of `CCN(CC)CCN(C)Cc1cccc(C(=O)Nc2sccc2C(=O)N/N=C/c2ccc(F)cc2)c1` [Compound 666, 3-{[(2-Diethylamino-ethyl)-methyl-amino]-methyl}-N-[3-(4-fluoro-benzylidene-hydrazinocarbonyl)-thiophen-2-yl]-benzamide], 31.2 µM.
Same read-out and setting: in the case of `COc1ccc(C(=O)Nc2ccccc2C(=O)N/N=C/c2cc(C)c(O)c(C)c2)cc1OC` [Compound 36, N-[2-(4-Hydroxy-3,5-dimethyl-benzylidene-hydrazinocarbonyl)-phenyl]-3,4-dimethoxy-benzamide] it was 4.04 µM.
As for `Cc1ccc(/C=N/NC(=O)c2cc(Br)ccc2NC(=O)c2cccs2)cc1` [Compound 160, Thiophene-2-carboxylic acid [4-bromo-2-(4-methyl-benzylidene-hydrazinocarbonyl)-phenyl]-amide], the IC50 turned out to be 0.93 µM.
Consider `COc1ccc(/C=N/NC(=O)c2cc(N3CCCCC3)ccc2NC(=O)c2cccc(CSCC(=O)O)c2)cc1` [Compound 892, {3-[2-(4-Methoxy-benzylidene-hydrazinocarbonyl)-4-piperidin-1-yl-phenylcarbamoyl]-benzylsulfanyl}-acetic acid], for which the IC50 stood at 14.8 µM.
The same measure, in the same setting: to `Cc1ccc(/C=N/NC(=O)c2c(C)csc2NC(=O)c2cccc(CN3CCN(CCO)CC3)c2)cc1C` [Compound 575, N-[3-(3,4-Dimethyl-benzylidene-hydrazinocarbonyl)-4-methyl-thiophen-2-yl]-3-[4-(2-hydroxy-ethyl)-piperazin-1-ylmethyl]-benzamide] belongs below 3 µM; to `COc1cccc(/C=N/NC(=O)c2cc(Cl)ccc2NC(=O)c2cccc(CSc3nnnn3CCN(C)C)c2)c1` [Compound 468, N-[4-Chloro-2-(3-methoxy-benzylidene-hydrazinocarbonyl)-phenyl]-3-[1-(2-dimethylamino-ethyl)-1H-tetrazol-5-ylsulfanylmethyl]-benzamide], 22.4 µM; to `COc1cc(OC)cc(C(=O)Nc2ccccc2C(=O)N/N=C/c2ccc(C)cc2)c1` [Compound 57, 3,5-Dimethoxy-N-[2-(4-methyl-benzylidene-hydrazinocarbonyl)-phenyl]-benzamide], 1.02 µM.
For the compound `Cc1ccc(/C=N/NC(=O)c2scc(C)c2NC(=O)c2cccc(CN3CCC(N4CCCCC4)CC3)c2)cc1C` [Compound 345, 3-[1,4′]Bipiperidinyl-1′-ylmethyl-N-[2-(3,4-dimethyl-benzylidene-hydrazinocarbonyl)-4-methyl-thiophen-3-yl]-benzamide], the IC50 was determined as 130 µM.
Same read-out and setting: to `O=C(Nc1ccc(N2CCC(N3CCCCC3)CC2)cc1C(=O)N/N=C/c1ccc(Cl)c(C(F)(F)F)c1)c1cccc(CSCCO)c1` [Compound 1067] belongs 2.79 µM.

Still in this experiment, the particulars now being: phosphate uptake, oocytes expressing rat NaPi-2b; 300 μM, determined from inhibition curve.
In general, inhibition refers to the drop in the measured response relative to a control, in per cent. High values mean a response far below the control, low ones a response near the control. Turning to `O=C(Nc1ccc(Cl)cc1C(=O)N/N=C/c1ccc(F)cc1)c1cccc(CN(CCO)CCO)c1` [Compound 550, 3-{[Bis-(2-hydroxy-ethyl)-amino]-methyl}-N-[4-chloro-2-(4-fluoro-benzylidene-hydrazinocarbonyl)-phenyl]-benzamide], the inhibition at 300 µM is 78.9%.
On the same count and under the same terms, in the case of `COc1ccc(C(=O)Nc2cc(OC)c(OC)cc2C(=O)N/N=C/c2ccccc2C)cc1OC` [Compound 230, N-[4,5-Dimethoxy-2-(2-methyl-benzylidene-hydrazinocarbonyl)-phenyl]-3,4-dimethoxy-benzamide] it was 50.4%; in that of `O=C(Nc1ccc(Br)cc1C(=O)N/N=C/c1ccc(Cl)c(C(F)(F)F)c1)c1ccc(CN2CCN(c3ccccn3)CC2)cc1` [Compound 776, N-[4-Bromo-2-(4-chloro-3-trifluoromethyl-benzylidene-hydrazinocarbonyl)-phenyl]-4-(4-pyridin-2-yl-piperazin-1-ylmethyl)-benzamide], 49.2%.
The compound `Cc1ccc(CNNC(=O)c2cc(Cl)ccc2NC(=O)c2cccc(CSCCO)c2)cc1` [Compound 547, N-{4-Chloro-2-[N′-(4-methyl-benzyl)-hydrazinocarbonyl]-phenyl}-3-(2-hydroxy-ethylsulfanylmethyl)-benzamide] had an inhibition at 300 µM of 66.6%.
